# Data: patent US9452981B2, “Pyroglutamic acid esters with improved biodegradability” (Clariant Produkte (Deutschland) GmbH, priority 2005, dated 2016)
# Experiment: Kinetic gas hydrate inhibition test in stirred steel autoclave
# Conditions: 5000 ppm based on the water phase; for Tind (time from attainment of 4° C. until the first gas absorption): distilled water and gas 20:80, 50 bar natural gas; for Tagg (time until the torque rises): distilled water and gas 20:80, 50 bar natural gas, 4° C.
# Protocol: To investigate the inhibiting action of the polyesters, a stirred steel autoclave with temperature control, pressure and torque sensor with capacity 450 ml was used. For investigations of kinetic inhibition, the autoclave was filled with distilled water and gas in a volume ratio of 20:80; for investigations of agglomerate inhibition, condensate was additionally added. Finally, 50 bar of natural gas were injected. […] At first, a pressure decrease corresponding to the thermal compression of the gas is observed. When the formation of gas hydrate nuclei occurs during the cooling time, the pressure measured falls, and a rise in the torque measured and a slight increase, in the temperature are observed. Without inhibitors, further growth and increasing agglomeration of the hydrate nuclei lead rapidly to a further rise in the torque. When the mixture is heated, the gas hydrates decompose, so that the starting state of the experimental series is attained. The measure used for the inhibiting action of the polymer is the time from the attainment of the minimum temperature of 4° C. until the first gas absorption (Tind) or the time until the torque rises (Tagg). Long induction times or agglomeration times indicate an effect as a kinetic inhibitor. The torque measured in the autoclave serves, in contrast, as a parameter for the agglomeration of the hydrate crystals. […] Composition of the natural gas used: methane 84.8%, ethane 9.2%, propane 2.6%, butane 0.9%, carbon dioxide 1.6%, nitrogen 0.9%. The comparative substance used was a commercially available gas hydrate inhibitor based on polyvinylpyrrolidone. The dosage in all tests was 5000 ppm based on the water phase.
structure (smiles),measurement,value
"O=C1CC[C@@H](C(=O)OCCOCCOCCOC(=O)[C@@H]2CCC(=O)N2)N1 [Example 1, triethylene glycol di(pyroglutamate)]",Tind (time from attainment of 4° C. until the first gas absorption),6.9 h
same,Tagg (time until the torque rises),7.2 h
"O=C1CC[C@@H](C(=O)OCCOCCOCCOC(=O)[C@@H]2CCC(=O)N2)N1 [Example 2, triethylene glycol di(pyroglutamate)]",Tind (time from attainment of 4° C. until the first gas absorption),7.3 h
same,Tagg (time until the torque rises),7.4 h
